Test results from patent US8999957B2, “Heterocyclic compounds as ERK inhibitors” (Merck Sharp & Dohme Corp., priority 2010, dated 2015).

These compounds were tested against fully phosphorylated, mouse aERK2 enzyme (Mus musculus (Mouse), UniProt P63085) (assay: Active ERK2 (aERK) IMAP-FP assay, condition 2). Conditions: aERK assay condition 2, 30 uM ATP; read-out: aERK IC50.
Assay type: biochemical
In short: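 Phosphorylation by fully phosphorylated mouse ERK2 ran 40-45 min, then quenched with IMAP beads (1:1000) in binding buffer; fluorescence polarization read after 30 min binding equilibration.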

fully phosphorylated, mouse aERK2 enzyme, sequence (P63085 whole entry): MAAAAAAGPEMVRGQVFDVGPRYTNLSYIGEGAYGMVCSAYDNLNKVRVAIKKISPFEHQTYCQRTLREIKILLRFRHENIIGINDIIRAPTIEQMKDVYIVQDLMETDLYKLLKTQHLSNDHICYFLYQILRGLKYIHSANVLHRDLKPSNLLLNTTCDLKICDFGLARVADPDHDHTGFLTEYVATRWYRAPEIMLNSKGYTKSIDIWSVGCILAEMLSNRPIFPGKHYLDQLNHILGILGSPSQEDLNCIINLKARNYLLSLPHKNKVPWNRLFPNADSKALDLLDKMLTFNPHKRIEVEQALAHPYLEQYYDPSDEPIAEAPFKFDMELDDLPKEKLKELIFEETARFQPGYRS

Row | SMILES | IC50 [nM]
1 | COC(=O)[C@@H](c1c(F)cccc1F)N1CCC[C@@H](NC(=O)c2ccc3[nH]nc(-c4ccncc4)c3c2)C1 [(R)-methyl 2-(2,6-difluorophenyl)-2-((R)-3-(3-(pyridin-4-yl)-1H-indazole-5-carboxamido)piperidin-1-yl)acetate] | 2200
2 | COc1ccc(NC(=O)[C@@H]2CC[C@@H](NC(=O)c3ccc4[nH]nc(-c5ccnc(C)c5)c4c3)CN2Cc2c(F)cccc2OC)cc1F [N-{(3R,6S)-1-(2-fluoro-6-methoxybenzyl)-6-[(3-fluoro-4-methoxyphenyl)carbamoyl]piperidin-3-yl}-3-(2-methylpyridin-4-yl)-1H-indazole-5-carboxamide] | 16.7
3 | CN(C)C(=O)C(c1c(F)cccc1F)N1CCC[C@@H](NC(=O)c2ccc3[nH]nc(-c4ccncc4)c3c2)C1 (single isomer, unassigned) [drawing 508, N-((R)-1-((S or R)-1-(2,6-difluorophenyl)-2-(dimethyl-amino)-2-oxoethyl)piperidin-3-yl)-3-(pyridin-4-yl)-1H-indazole-5-carboxamide] | 115
4 | COc1ccc(N(C)C(=O)[C@@H]2CC[C@@H](NC(=O)c3ccc4[nH]nc(-c5ccnc(C)c5)c4c3)CN2Cc2c(F)cccc2OC)cc1 [N-{(3R,6S)-1-(2-fluoro-6-methoxybenzyl)-6-[(4-methoxyphenyl)(methyl)carbamoyl]piperidin-3-yl}-3-(2-methylpyridin-4-yl)-1H-indazole-5-carboxamide] | 5.8
5 | COc1cccc(F)c1CN1CCC[C@@H](NC(=O)c2ccc3[nH]nc(C4=CCOCC4)c3c2)C1 [3-(3,6-dihydro-2H-pyran-4-yl)-N-[(3R)-1-(2-fluoro-6-methoxy-benzyl)piperidin-3-yl]-1H-indazole-5-carboxamide] | 1.3
6 | CNC(=O)C(c1ccccc1F)N1CCC[C@@H](NC(=O)c2ccc3[nH]nc(-c4ccncc4)c3c2)C1 (single isomer, unassigned) [drawing 501, N-((R)-1-((R or S)-1-(2-fluorophenyl)-2-(methyl-amino)-2-oxoethyl)piperidin-3-yl)-3-(pyridin-4-yl)-1H-indazole-5-carboxamide] | 175

Second part, the compound after the results:

Row | IC50 [nM] | SMILES
7 | 1.3 | COc1cccc(F)c1CN1C[C@H](NC(=O)c2ccc3[nH]nc(-c4ccnc(C)c4)c3c2)CC[C@H]1C(=O)NC[C@H]1CC[C@H](O)C1 [N-[(3R,6S)-1-(2-fluoro-6-methoxybenzyl)-6-({[(1S,3S)-3-hydroxycyclopentyl]methyl}carbamoyl)piperidin-3-yl]-3-(2-methylpyridin-4-yl)-1H-indazole-5-carboxamide]
8 | 1.5 | COc1cccc(F)c1CN1C[C@H](NC(=O)c2ccc3[nH]nc(-c4ccnc(C)c4)c3c2)CC[C@H]1C(=O)NC[C@@H]1CC[C@@H](O)C1 [N-[(3R,6S)-1-(2-fluoro-6-methoxybenzyl)-6-({[(1R,3R)-3-hydroxycyclopentyl]methyl}carbamoyl)piperidin-3-yl]-3-(2-methylpyridin-4-yl)-1H-indazole-5-carboxamide]
9 | 3 | COc1cccc(F)c1CN1C[C@H](NC(=O)c2ccc3[nH]nc(-c4ccnc(C)c4)c3c2)CC[C@H]1C(=O)Nc1ccncc1 [N-[(3R,6S)-1-(2-fluoro-6-methoxybenzyl)-6-(pyridin-4-ylcarbamoyl)piperidin-3-yl]-3-(2-methylpyridin-4-yl)-1H-indazole-5-carboxamide]

Same assay, conditions: active ERK2; read-out: aErk2 Ic50

Row | SMILES | IC50 [nM]
10 | Cc1cc(-c2n[nH]c3ccc(C(=O)N[C@@H]4CC[C@@H](C(=O)N(C)C)N(Cc5cccs5)C4)cc23)ccn1 [N-[(3R,6S)-6-(dimethylcarbamoyl)-1-(thiophen-2-ylmethyl)piperidin-3-yl]-3-(2-methylpyridin-4-yl)-1H-indazole-5-carboxamide] | 14.4
11 | CCN(CC)C(=O)[C@@H]1CC[C@@H](NC(=O)c2ccc3[nH]nc(-c4ccnc(C)c4)c3c2)CN1CCc1ccccc1 [N-[(3R,6S)-6-(diethylcarbamoyl)-1-(2-phenylethyl)piperidin-3-yl]-3-(2-methylpyridin-4-yl)-1H-indazole-5-carboxamide] | 158
12 | COc1cccc(F)c1CN1C[C@H](NC(=O)c2ccc3[nH]nc(-c4ccnnc4)c3c2)CC[C@H]1C(=O)N(C)C [N-[(3R,6S)-6-(dimethylcarbamoyl)-1-(2-fluoro-6-methoxybenzyl)piperidin-3-yl]-3-pyridazin-4-yl-1H-indazole-5-carboxamide] | 137
13 | Cc1cc(-c2n[nH]c3ccc(C(=O)N[C@@H]4CC[C@@H](C(=O)N5CC(F)(F)C5)N(Cc5ccccc5F)C4)cc23)ccn1 [N-[(3R,6S)-6-[(3,3-difluoroazetidin-1-yl)carbonyl]-1-(2-fluorobenzyl)piperidin-3-yl]-3-(2-methylpyridin-4-yl)-1H-indazole-5-carboxamide] | 56.6
14 | COc1cccc(F)c1CN1C[C@H](NC(=O)c2ccc3[nH]nc(-c4ccnc(C)c4)c3c2)CC[C@H]1C(=O)NCCCNC(=O)OC(C)(C)C [tert-butyl [3-({[(2S,5R)-1-(2-fluoro-6-methoxybenzyl)-5-({[3-(2-methylpyridin-4-yl)-1H-indazol-5-yl]carbonyl}amino)piperidin-2-yl]carbonyl}amino)propyl]carbamate] | 16.9
15 | Cc1cc(-c2n[nH]c3ccc(C(=O)N[C@@H]4CC[C@@H](C(=O)N5CC(F)(F)C5)N(Cc5cccs5)C4)cc23)ccn1 [N-[(3R,6S)-6-[(3,3-difluoroazetidin-1-yl)carbonyl]-1-(thiophen-2-ylmethyl)-piperidin-3-yl]-3-(2-methylpyridin-4-yl)-1H-indazole-5-carboxamide] | 25.8
16 | COc1cccc(F)c1CN1C[C@H](NC(=O)c2ccc3[nH]nc(-c4ccnc(C)c4)c3c2)CC[C@H]1C(=O)NOC(C)(C)C [N-[(3R,6S)-6-(tert-butoxycarbamoyl)-1-(2-fluoro-6-methoxybenzyl)piperidin-3-yl]-3-(2-methylpyridin-4-yl)-1H-indazole-5-carboxamide] | 26.2
17 | [2H]C([2H])([2H])Oc1cccc(F)c1CN1C[C@H](NC(=O)c2ccc3[nH]nc(-c4ccc5nc(C)sc5c4)c3c2)CC[C@H]1C(N)=O | 3.4
18 | CCCCN(CCCC)C(=O)[C@@H]1CC[C@@H](NC(=O)c2ccc3[nH]nc(-c4ccnc(C)c4)c3c2)CN1Cc1c(F)cccc1OC [N-[(3R,6S)-6-(dibutylcarbamoyl)-1-(2-fluoro-6-methoxybenzyl)piperidin-3-yl]-3-(2-methylpyridin-4-yl)-1H-indazole-5-carboxamide] | 502

The remaining lines, values ahead:

Row | IC50 [nM] | SMILES
19 | 48.3 | COc1cccc(F)c1CN1C[C@H](NC(=O)c2ccc3[nH]nc(-c4ccnc(C)c4)c3c2)CC[C@H]1C(=O)N1CCC(Cl)CC1 [N-[(3R,6S)-6-[(4-chloropiperidin-1-yl)carbonyl]-1-(2-fluoro-6-methoxybenzyl)-piperidin-3-yl]-3-(2-methylpyridin-4-yl)-1H-indazole-5-carboxamide]
20 | 18.2 | COc1cccc(F)c1CN1C[C@H](NC(=O)c2ccc3[nH]nc(-c4ccnc(C)c4)c3c2)CC[C@H]1C(=O)N1CCOCC1 [N-[(3R,6S)-1-(2-fluoro-6-methoxybenzyl)-6-(morpholin-4-ylcarbonyl)piperidin-3-yl]-3-(2-methylpyridin-4-yl)-1H-indazole-5-carboxamide]
21 | 96.5 | Cc1cc(-c2n[nH]c3ccc(C(=O)N[C@@H]4CC[C@@H](C(=O)N5CC(F)(F)C5)N(Cc5c(F)cccc5F)C4)cc23)ccn1 [N-[(3R,6S)-6-[(3,3-difluoroazetidin-1-yl)carbonyl]-1-(2,6-difluorobenzyl)piperidin-3-yl]-3-(2-methylpyridin-4-yl)-1H-indazole-5-carboxamide]
22 | 22.1 | COc1cccc(F)c1CN1C[C@H](NC(=O)c2ccc3[nH]nc(-c4ccnc(C)c4)c3c2)CC[C@H]1C(=O)N1CCN(C(=O)OC2(C)CC2)CC1 [1-methylcyclopropyl 4-{[(2S,5R)-1-(2-fluoro-6-methoxybenzyl)-5-({[3-(2-methylpyridin-4-yl)-1H-indazol-5-yl]carbonyl}amino)piperidin-2-yl]carbonyl}piperazine-1-carboxylate]
23 | 20.5 | CCOC(=O)N1CCN(C(=O)[C@@H]2CC[C@@H](NC(=O)c3ccc4[nH]nc(-c5ccnc(C)c5)c4c3)CN2Cc2c(F)cccc2OC)CC1 [ethyl 4-{[(2S,5R)-1-(2-fluoro-6-methoxy-benzyl)-5-({[3-(2-methylpyridin-4-yl)-1H-indazol-5-yl]carbonyl}amino)piperidin-2-yl]carbonyl}piperazine-1-carboxylate]
24 | 5.6 | COc1cccc(F)c1CN1C[C@H](NC(=O)c2ccc3[nH]nc(-c4ccnc(C)c4)c3c2)CC[C@H]1C(=O)NCCO [N-{(3R,6S)-1-(2-fluoro-6-methoxybenzyl)-6-[(2-hydroxyethyl)carbamoyl]piperidin-3-yl}-3-(2-methylpyridin-4-yl)-1H-indazole-5-carboxamide]
25 | 12.2 | [2H]C([2H])([2H])Oc1cccc(F)c1CN1C[C@H](NC(=O)c2ccc3[nH]nc(-c4ccnc(C)c4)c3c2)CC[C@H]1C(=O)N1CCN(C(=O)OC(C)(C)C)CC1
26 | 10.5 | COc1cccc(F)c1CN1C[C@H](NC(=O)c2ccc3[nH]nc(-c4ccnc(C)c4)c3c2)CC[C@H]1C(=O)N1CCCO1 [N-[(3R,6S)-1-(2-fluoro-6-methoxybenzyl)-6-(isoxazolidin-2-ylcarbonyl)piperidin-3-yl]-3-(2-methylpyridin-4-yl)-1H-indazole-5-carboxamide]
27 | 74 | Cc1cc(-c2n[nH]c3ccc(C(=O)N[C@@H]4CC[C@@H](C(=O)N(C)C)N(Cc5c(F)cccc5F)C4)cc23)ccn1 [N-[(3R,6S)-1-(2,6-difluorobenzyl)-6-(dimethylcarbamoyl)piperidin-3-yl]-3-(2-methylpyridin-4-yl)-1H-indazole-5-carboxamide]
28 | 9.6 | COc1cccc(F)c1CN1C[C@H](NC(=O)c2ccc3[nH]nc(-c4ccnc(C)c4)c3c2)CC[C@H]1C(=O)N1CCCCO1 [N-[(3R,6S)-1-(2-fluoro-6-methoxybenzyl)-6-(1,2-oxazinan-2-ylcarbonyl)piperidin-3-yl]-3-(2-methylpyridin-4-yl)-1H-indazole-5-carboxamide]
